Test results from ChEMBL document CHEMBL2177005, “Mineralocorticoid receptor antagonists for the treatment of hypertension and diabetic nephropathy” (J Med Chem, 2012).

Legend:
Progesterone receptor [1] = target: T1, Progesterone receptor (Homo sapiens, UniProt P06401); test: Antagonist activity at progesterone receptor; format: functional
T1 sequence (P06401 whole entry): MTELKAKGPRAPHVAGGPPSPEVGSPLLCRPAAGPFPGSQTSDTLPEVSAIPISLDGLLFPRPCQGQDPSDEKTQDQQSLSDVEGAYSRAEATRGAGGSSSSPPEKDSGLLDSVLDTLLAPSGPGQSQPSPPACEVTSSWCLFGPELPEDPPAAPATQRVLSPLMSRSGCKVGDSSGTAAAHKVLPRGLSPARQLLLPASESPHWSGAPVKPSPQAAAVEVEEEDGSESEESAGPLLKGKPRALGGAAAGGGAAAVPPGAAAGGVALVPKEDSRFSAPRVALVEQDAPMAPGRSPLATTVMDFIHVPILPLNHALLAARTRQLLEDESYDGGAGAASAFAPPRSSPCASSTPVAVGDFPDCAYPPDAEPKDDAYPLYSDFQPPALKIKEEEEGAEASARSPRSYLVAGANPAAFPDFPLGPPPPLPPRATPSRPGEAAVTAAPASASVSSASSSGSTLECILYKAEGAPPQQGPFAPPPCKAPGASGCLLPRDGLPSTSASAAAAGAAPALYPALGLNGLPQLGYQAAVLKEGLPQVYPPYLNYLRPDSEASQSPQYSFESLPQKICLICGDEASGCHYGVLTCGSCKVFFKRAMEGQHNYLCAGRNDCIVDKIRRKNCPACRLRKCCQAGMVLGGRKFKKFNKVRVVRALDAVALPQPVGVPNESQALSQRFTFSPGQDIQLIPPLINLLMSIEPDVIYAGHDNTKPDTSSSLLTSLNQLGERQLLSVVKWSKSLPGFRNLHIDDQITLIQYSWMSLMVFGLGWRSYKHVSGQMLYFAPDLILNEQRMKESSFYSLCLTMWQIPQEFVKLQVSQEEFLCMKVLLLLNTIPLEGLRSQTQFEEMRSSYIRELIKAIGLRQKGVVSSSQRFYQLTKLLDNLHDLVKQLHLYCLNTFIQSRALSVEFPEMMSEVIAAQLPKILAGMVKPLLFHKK

Progesterone receptor [2] = target: T1, Progesterone receptor; test: Displacement of [3H]methyltrienolone from human progesterone receptor overexpressed in HEK293 cells by microbeta counting assay; format: cell-based
Androgen receptor [3] = target: T2, Androgen receptor (Homo sapiens, UniProt P10275); test: Displacement of [3H]-methyltrienolone from human androgen receptor overexpressed in HEK293 cells by microbeta counting assay; format: cell-based
T2 sequence (P10275 whole entry): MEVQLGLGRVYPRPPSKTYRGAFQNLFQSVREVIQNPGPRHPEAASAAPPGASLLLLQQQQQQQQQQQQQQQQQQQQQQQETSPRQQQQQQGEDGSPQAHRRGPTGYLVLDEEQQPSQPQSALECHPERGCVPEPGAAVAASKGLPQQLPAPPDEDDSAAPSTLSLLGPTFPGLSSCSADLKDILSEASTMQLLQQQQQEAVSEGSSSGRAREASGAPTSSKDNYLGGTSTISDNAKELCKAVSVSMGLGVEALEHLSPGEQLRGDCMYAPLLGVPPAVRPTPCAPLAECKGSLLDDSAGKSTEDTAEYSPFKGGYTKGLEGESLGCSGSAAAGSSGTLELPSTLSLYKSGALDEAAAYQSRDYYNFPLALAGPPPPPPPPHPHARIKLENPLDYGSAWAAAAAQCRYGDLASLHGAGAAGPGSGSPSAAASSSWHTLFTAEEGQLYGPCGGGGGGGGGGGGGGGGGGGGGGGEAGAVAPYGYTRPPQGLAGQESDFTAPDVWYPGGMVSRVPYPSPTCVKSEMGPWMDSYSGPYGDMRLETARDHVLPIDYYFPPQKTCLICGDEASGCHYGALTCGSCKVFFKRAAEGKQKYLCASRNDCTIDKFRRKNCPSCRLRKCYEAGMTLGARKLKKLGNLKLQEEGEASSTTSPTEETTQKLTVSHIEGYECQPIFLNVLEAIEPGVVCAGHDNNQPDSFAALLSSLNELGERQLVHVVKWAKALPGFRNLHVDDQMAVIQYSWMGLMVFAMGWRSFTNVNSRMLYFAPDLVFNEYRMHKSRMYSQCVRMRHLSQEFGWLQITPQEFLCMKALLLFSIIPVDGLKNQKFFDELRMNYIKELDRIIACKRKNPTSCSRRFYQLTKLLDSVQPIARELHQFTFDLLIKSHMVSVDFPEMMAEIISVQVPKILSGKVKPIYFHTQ

Glucocorticoid receptor [4] = target: T3, Glucocorticoid receptor (Homo sapiens, UniProt P04150); test: Displacement of [3H]dexamethasone from human glucocorticoid receptor overexpressed in HEK293 cells by microbeta counting assay; format: cell-based
T3 sequence (P04150 whole entry): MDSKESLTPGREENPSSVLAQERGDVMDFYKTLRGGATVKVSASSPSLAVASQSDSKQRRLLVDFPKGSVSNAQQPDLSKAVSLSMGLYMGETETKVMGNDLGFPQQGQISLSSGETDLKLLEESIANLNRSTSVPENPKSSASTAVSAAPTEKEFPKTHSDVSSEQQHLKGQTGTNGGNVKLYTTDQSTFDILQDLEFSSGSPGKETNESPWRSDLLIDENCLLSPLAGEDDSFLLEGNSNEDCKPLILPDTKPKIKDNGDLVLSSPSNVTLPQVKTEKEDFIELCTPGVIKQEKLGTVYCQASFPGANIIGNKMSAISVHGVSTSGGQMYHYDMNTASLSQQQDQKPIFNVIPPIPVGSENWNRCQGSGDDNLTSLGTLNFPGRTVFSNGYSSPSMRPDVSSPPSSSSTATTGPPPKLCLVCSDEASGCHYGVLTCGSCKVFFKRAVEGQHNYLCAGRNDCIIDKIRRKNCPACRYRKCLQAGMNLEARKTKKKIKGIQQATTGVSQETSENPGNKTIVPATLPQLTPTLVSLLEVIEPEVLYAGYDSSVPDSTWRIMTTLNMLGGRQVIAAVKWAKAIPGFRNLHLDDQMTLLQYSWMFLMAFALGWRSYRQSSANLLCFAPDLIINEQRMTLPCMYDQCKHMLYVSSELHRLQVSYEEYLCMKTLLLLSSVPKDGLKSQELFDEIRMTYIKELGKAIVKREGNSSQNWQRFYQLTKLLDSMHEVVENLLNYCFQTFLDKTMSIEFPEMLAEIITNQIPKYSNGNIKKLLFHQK

[5] = target: T4, Mineralocorticoid receptor (Homo sapiens, UniProt P08235); test: Displacement of [3H]aldosterone from human mineralocorticoid receptor overexpressed in HEK293 cells by microbeta counting assay; format: cell-based
T4 sequence (P08235 whole entry): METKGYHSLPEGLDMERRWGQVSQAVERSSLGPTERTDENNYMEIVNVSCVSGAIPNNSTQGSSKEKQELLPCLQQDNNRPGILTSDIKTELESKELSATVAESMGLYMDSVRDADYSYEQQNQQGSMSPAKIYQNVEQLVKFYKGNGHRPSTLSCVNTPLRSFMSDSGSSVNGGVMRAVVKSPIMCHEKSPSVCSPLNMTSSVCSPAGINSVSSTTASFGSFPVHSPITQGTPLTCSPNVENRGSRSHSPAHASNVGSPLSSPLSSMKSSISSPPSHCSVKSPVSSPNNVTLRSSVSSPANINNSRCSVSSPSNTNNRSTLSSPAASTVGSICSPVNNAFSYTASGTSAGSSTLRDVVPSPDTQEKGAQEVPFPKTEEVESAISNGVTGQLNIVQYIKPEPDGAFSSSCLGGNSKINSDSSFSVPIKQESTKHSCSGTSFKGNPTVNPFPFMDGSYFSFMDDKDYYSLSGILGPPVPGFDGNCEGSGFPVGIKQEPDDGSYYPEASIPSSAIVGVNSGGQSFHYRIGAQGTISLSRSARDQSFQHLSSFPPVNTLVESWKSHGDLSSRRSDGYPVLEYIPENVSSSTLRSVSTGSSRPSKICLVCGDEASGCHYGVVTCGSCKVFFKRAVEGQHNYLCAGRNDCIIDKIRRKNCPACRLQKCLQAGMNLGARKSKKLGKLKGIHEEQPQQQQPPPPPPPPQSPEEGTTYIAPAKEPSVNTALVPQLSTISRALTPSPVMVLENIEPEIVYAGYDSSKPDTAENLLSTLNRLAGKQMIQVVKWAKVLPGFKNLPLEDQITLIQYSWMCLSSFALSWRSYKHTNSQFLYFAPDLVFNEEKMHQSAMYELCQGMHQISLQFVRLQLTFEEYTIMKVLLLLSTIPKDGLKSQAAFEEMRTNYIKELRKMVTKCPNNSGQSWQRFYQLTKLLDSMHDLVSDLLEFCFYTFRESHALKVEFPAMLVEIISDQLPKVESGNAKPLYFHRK

Progesterone receptor [6] = target: T1, Progesterone receptor; test: Antagonist activity against progesterone receptor expressed in CHOK1 cells after 10 to 30 mins by luciferase reporter gene assay; format: functional, cell-based, CHO-K1
Androgen receptor [7] = target: T2, Androgen receptor; test: Antagonist activity against androgen receptor expressed in CHOK1 cells after 10 to 30 mins by luciferase reporter gene assay; format: functional, cell-based, CHO-K1
Glucocorticoid receptor [8] = target: T3, Glucocorticoid receptor; test: Antagonist activity against glucocorticoid receptor expressed in CHOK1 cells after 10 to 30 mins by luciferase reporter gene assay; format: functional, cell-based, CHO-K1
[9] = target: T4, Mineralocorticoid receptor; test: Antagonist activity against human mineralocorticoid receptor expressed in CHOK1 cells after 10 to 30 mins by luciferase reporter gene assay; format: functional, cell-based, CHO-K1
[10] = target: T4, Mineralocorticoid receptor; test: Antagonist activity at mineralocorticoid receptor expressed in african green monkey COS7 cells after 18 hrs by luciferase reporter gene assay; format: functional, cell-based, COS-7
[11] = target: T5, Mineralocorticoid receptor (Rattus norvegicus, UniProt P22199); test: Displacement of [3H]-aldosterone from rat mineralocorticoid receptor after 18 hrs by liquid scintillation counter analysis
T5 sequence (P22199 whole entry): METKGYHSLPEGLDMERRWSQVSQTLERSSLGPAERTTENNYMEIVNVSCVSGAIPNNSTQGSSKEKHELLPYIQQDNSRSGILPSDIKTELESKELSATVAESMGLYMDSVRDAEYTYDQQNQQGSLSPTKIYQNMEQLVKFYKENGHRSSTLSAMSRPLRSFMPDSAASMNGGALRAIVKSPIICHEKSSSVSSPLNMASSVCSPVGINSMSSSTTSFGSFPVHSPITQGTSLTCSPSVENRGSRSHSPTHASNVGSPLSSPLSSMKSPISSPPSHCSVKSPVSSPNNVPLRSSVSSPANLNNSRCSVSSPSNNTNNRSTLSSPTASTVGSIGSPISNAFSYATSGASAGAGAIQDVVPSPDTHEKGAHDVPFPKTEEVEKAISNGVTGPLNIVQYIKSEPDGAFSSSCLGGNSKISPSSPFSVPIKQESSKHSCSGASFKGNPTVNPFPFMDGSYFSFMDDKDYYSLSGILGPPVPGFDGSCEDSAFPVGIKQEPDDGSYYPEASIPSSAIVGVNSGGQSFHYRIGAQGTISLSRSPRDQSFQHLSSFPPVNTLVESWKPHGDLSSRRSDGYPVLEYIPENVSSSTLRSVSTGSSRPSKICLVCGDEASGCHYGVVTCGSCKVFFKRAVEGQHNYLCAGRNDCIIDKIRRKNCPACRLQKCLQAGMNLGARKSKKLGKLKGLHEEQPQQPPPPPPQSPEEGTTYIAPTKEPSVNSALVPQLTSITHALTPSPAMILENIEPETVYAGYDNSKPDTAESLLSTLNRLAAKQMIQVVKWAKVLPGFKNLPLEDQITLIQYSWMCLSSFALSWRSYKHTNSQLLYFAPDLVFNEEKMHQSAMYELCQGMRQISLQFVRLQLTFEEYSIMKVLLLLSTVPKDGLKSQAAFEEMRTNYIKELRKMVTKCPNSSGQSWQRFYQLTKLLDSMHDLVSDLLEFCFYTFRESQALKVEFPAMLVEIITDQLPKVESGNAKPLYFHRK

[12] = target: T5, Mineralocorticoid receptor; test: Displacement of [3H]Aldosterone C from rat mineralocorticoid receptor by liquid scintillation counter analysis
[13] = target: T4, Mineralocorticoid receptor; test: Antagonist activity at mineralocorticoid receptor; format: functional
[14] = Protein binding in plasma; format: ADME, cell-free; settings: read-out: PPB (converted)
[15] = Binding affinity to Ca2+ channel L type by radioligand binding assay
[16] = target: T5, Mineralocorticoid receptor; test: Binding affinity to rat mineralocorticoid receptor

SMILES: O=C1COc2ccc(C3=Nn4cnnc4SC3c3ccccc3)cc2N1 (configuration not stated)
- IC50 (Progesterone receptor [1]): > 10000 nM

SMILES: O=c1[nH]c2cc(/C=C3\c4ccccc4COc4cc(F)ccc43)ccc2n1[C@H]1C[C@H]2COCCN2C1
- Ki (Progesterone receptor [2]): 478 nM
- Ki (Androgen receptor [3]): 1170 nM
- Ki (Glucocorticoid receptor [4]): 669 nM
- Ki [5]: 0.4 nM

SMILES: CCOC(=O)C1=C(C)NC(C)=C(C(C)=O)[C@H]1c1cccc2c(=O)cc(C)oc12
- IC50 (Progesterone receptor [6]): 9020 nM
- IC50 (Androgen receptor [7]): 4440 nM
- IC50 (Glucocorticoid receptor [8]): 5470 nM
- IC50 [9]: 28 nM

SMILES: CC1(C)OC(=S)Nc2ccc(NS(=O)(=O)c3cccs3)cc21
- IC50 [10]: 130 nM
- IC50 [11]: 21 nM

SMILES: COc1cc(C(=O)Nc2ccc(-c3ccccc3OC(F)(F)F)c(CCN(C)C3CC3)c2)ccc1S(N)(=O)=O
- IC50 [12]: 22 nM

SMILES: Cc1c(C(=O)Nc2ccc(S(C)(=O)=O)cc2)cn(CCO)c1-c1ccccc1C(F)(F)F
- IC50 [13]: 2.4 nM

SMILES: COC(=O)[C@@H]1CC2=CC(=O)CC[C@]2(C)[C@@]23O[C@@H]2C[C@@]2(C)[C@@H](CC[C@@]24CCC(=O)O4)[C@H]13 [EPLERENONE]
- fraction unbound [14]: 0.1

SMILES: CCOc1ncc(C)c2c1[C@H](c1ccc(C#N)cc1OC)C(C(N)=O)=C(C)N2 [FINERENONE]
- IC50 [15]: > 1000 nM

SMILES: CC1(C)Oc2cc(NS(C)(=O)=O)ccc2N(c2ccc(F)cc2)C1=O [MT-3995]
- IC50 [16]: < 500 nM

SMILES: CC(=O)S[C@@H]1CC2=CC(=O)CC[C@]2(C)[C@H]2CC[C@@]3(C)[C@@H](CC[C@@]34CCC(=O)O4)[C@H]12 [SPIRONOLACTONE]
- fraction unbound [14]: 0.51
